Active and inactive are the calls of the source. No cut-off for these calls is given here.
Assays:
[1] = Half life in human; type: ADME, organism-based; details: in vivo
HL-60 = assay: Cytotoxicity against human HL60 cells; type: functional; details: read-out: ED50 (the source's name)
Rattus norvegicus [2] = assay: Toxicity in Long-Evans rat assessed as water intake at 20 mg/kg, sc measured after 8 to 9 days (reference value: 53.3 +/- 2.7 mL); type: organism-based; design: dose 20 mg/kg, route subcutaneous; details: in vivo
Rattus norvegicus [3] = assay: Antidepressant activity in Long-Evans rat assessed as effect on number of boli excreted at 20 to 90 mg/kg, sc administered 21 days measured for 6 mins by Porsalt forced-swim test relative to vehicle-treated control; type: functional, organism-based
Rattus norvegicus [4] = assay: Toxicity in Long-Evans rat assessed as water intake at 20 mg/kg, sc measured after 20 to 21 days (reference value: 50.7 +/- 3.5 mL); type: organism-based; design: dose 20 mg/kg, route subcutaneous; details: in vivo
Rattus norvegicus [5] = assay: Antidepressant activity in Long-Evans rat assessed as effect on inverts at 20 to 90 mg/kg, sc administered 21 days measured for 6 mins by Porsalt forced-swim test relative to vehicle-treated control; type: functional, organism-based
Rattus norvegicus [6] = assay: Toxicity in Long-Evans rat assessed as white adipose tissue weight at 20 to 90 mg/kg, sc measured after 21 days; type: organism-based; design: dose 20-90 mg/kg, route subcutaneous; details: in vivo, 504 h
Rattus norvegicus [7] = assay: Antidepressant activity in Long-Evans rat assessed as effect on swim speed at 20 to 90 mg/kg, sc administered 21 days measured for 6 mins by Porsalt forced-swim test relative to vehicle-treated control; type: functional, organism-based
Rattus norvegicus [8] = assay: Toxicity in Long-Evans rat assessed as food intake at 20 mg/kg, sc measured after 20 to 21 days (reference value: 33.8 +/- 1.8 g); type: organism-based; design: dose 20 mg/kg, route subcutaneous; details: in vivo
Rattus norvegicus [9] = assay: Toxicity in Long-Evans rat assessed as food intake at 20 mg/kg, sc measured after 8 to 9 days (reference value: 33.1 +/- 1.5 g); type: organism-based; design: dose 20 mg/kg, route subcutaneous; details: in vivo
Rattus norvegicus [10] = assay: Toxicity in Long-Evans rat assessed as hypothalamic aromatase level at 20 mg/kg, sc measured per mg of protein measured for 21 days (reference value: 60 +/- 6.1 pmol/hr); type: organism-based; design: dose 20 mg/kg, route subcutaneous; details: in vivo, 504 h
Rattus norvegicus [11] = assay: Toxicity in Long-Evans rat assessed as water intake at 90 mg/kg, sc measured after 8 to 9 days (reference value: 53.3 +/- 2.7 mL); type: organism-based; design: dose 90 mg/kg, route subcutaneous; details: in vivo
Rattus norvegicus [12] = assay: Antidepressant activity in Long-Evans rat assessed as mobile index at 90 mg/kg, sc administered 21 days measured for 6 mins by Porsalt forced-swim test (reference value: 286 +/- 8.7 secs); type: functional; details: route subcutaneous
Rattus norvegicus [13] = assay: Toxicity in Long-Evans rat assessed as change in estrous cycle pattern at 20 to 90 mg/kg, sc measured for 8 days by vaginal histological analysis; type: organism-based; design: dose 20-90 mg/kg, route subcutaneous; details: in vivo, 192 h
Rattus norvegicus [14] = assay: Toxicity in Long-Evans rat assessed as water intake at 90 mg/kg, sc measured after 20 to 21 days (reference value: 50.7 +/- 3.5 mL); type: organism-based; design: dose 90 mg/kg, route subcutaneous; details: in vivo
Rattus norvegicus [15] = assay: Toxicity in Long-Evans rat assessed as hypothalamic aromatase level at 90 mg/kg, sc measured per mg of protein measured for 21 days (reference value: 60 +/- 6.1 pmol/hr); type: organism-based; design: dose 90 mg/kg, route subcutaneous; details: in vivo, 504 h
Rattus norvegicus [16] = assay: Toxicity in Long-Evans rat assessed as food intake at 90 mg/kg, sc measured after 8 to 9 days (reference value: 33.1 +/- 1.5 g); type: organism-based; design: dose 90 mg/kg, route subcutaneous; details: in vivo
Rattus norvegicus [17] = assay: Toxicity in Long-Evans rat assessed as white adipose tissue weight/body weight ratio at 20 to 90 mg/kg, sc measured after 21 days; type: organism-based; design: dose 20-90 mg/kg, route subcutaneous; details: in vivo, 504 h
Rattus norvegicus [18] = assay: Toxicity in Long-Evans rat assessed as food intake at 90 mg/kg, sc measured after 20 to 21 days (reference value: 33.8 +/- 1.8 g); type: organism-based; design: dose 90 mg/kg, route subcutaneous; details: in vivo
Rattus norvegicus [19] = assay: Antidepressant activity in Long-Evans rat assessed as mobile index at 20 mg/kg, sc administered 21 days measured for 6 mins by Porsalt forced-swim test (reference value: 286 +/- 8.7 secs); type: functional; details: route subcutaneous
Rattus norvegicus [20] = assay: Antidepressant activity in Long-Evans rat assessed as effect on dives at 20 to 90 mg/kg, sc administered 21 days measured for 6 mins by Porsalt forced-swim test relative to vehicle-treated control; type: functional, organism-based

Oc1ccc(/C=C/c2cc(O)cc(O)c2)cc1 [RESVERATROL]
half-life [1]: 30 min
EC50 (HL-60): 22 µM

CC(=O)Oc1ccc(/C=C/c2cc(O)cc(O)c2)cc1
Activity (Rattus norvegicus [2]): 52.1 mL
Activity (Rattus norvegicus [3]): Active
Activity (Rattus norvegicus [4]): 50.9 mL
Activity (Rattus norvegicus [5]): Active
Activity (Rattus norvegicus [6]): 6.6 g
Activity (Rattus norvegicus [7]): Active
Activity (Rattus norvegicus [8]): 35.2 g
Activity (Rattus norvegicus [9]): 34.3 g
Activity (Rattus norvegicus [10]): 71 pmol/h
Activity (Rattus norvegicus [11]): 56.7 mL
EC50 (HL-60): 17 µM
Time (Rattus norvegicus [12]): 319 s
Activity (Rattus norvegicus [13]): Non-toxic
Activity (Rattus norvegicus [14]): 55.8 mL
Activity (Rattus norvegicus [15]): 73 pmol/h
Activity (Rattus norvegicus [16]): 35.2 g
Ratio (Rattus norvegicus [17]): 2.4
Activity (Rattus norvegicus [18]): 36.9 g
Time (Rattus norvegicus [19]): 312 s
Activity (Rattus norvegicus [20]): Active
